According to patent publication US20120060243A1, “Herbicide-Resistant AHAS-Mutants and Methods of Use” (priority 2008, published 2012):

How the values were obtained:
Assay type in all cases: in vivo, Brassica napus
[1] = system: BnCL131A1 (AHAS III A122T:S653N double mutant); test: Plant injury after herbicide spray, Table 3; settings: 3-4 leaf stage, 2 weeks after treatment, line BnCL131A1
Method: (§1) B. napus plants containing the double mutant were also tested for plant injury due to imidazolinone herbicide application. B. napus plants for lines BN02 (wild type), BnCL131A1 (AHAS III A122T:S653N double mutant), BnCL120C7 (AHAS III A122T single mutant), BnCL97 (AHAS III S653N single mutant), PM1/PM2 (commercial two gene check), PM1 (AHAS I S653N single mutant) and PM2 (AHAS III W574L single mutant) were grown from seed until 3-4 leaf stage then either left unsprayed or sprayed with 35, 70 or 210 g ai/ha imazamox supplemented with 0.5% v/v Merge. Herbicide injury was evaluated 2 weeks after treatment (DAT) on 8-24 plants per line using a 0 to 9 scale where 0 is no injury and 9 is plant death. The results are presented as mean injury±one standard error of the mean in Table 3 below. The results presented cover two independent plantings and sprays for all lines except BnCL97. The table also presents values for ±one standard error of the mean.

[2] = system: PM2 (AHAS III W574L single mutant); test: Plant injury after herbicide spray, Table 3; settings: 3-4 leaf stage, 2 weeks after treatment, line PM2
Method: as §1

[3] = system: PM1 (AHAS I S653N single mutant); test: Plant injury after herbicide spray, Table 3; settings: 3-4 leaf stage, 2 weeks after treatment, line PM1
Method: as §1

[4] = system: BN-02 (wild type); test: Plant injury after herbicide spray, Table 3; settings: 3-4 leaf stage, 2 weeks after treatment, line BN-02
Method: as §1

[5] = system: PM1/PM2 (commercial two gene check); test: Plant injury after herbicide spray, Table 3; settings: 3-4 leaf stage, 2 weeks after treatment, line PM1/PM2
Method: as §1

[6] = system: BnCL120C7 (AHAS III A122T single mutant); test: Plant injury after herbicide spray, Table 3; settings: 3-4 leaf stage, 2 weeks after treatment, line BnCL120C7
Method: as §1

[7] = system: BnCL97 (AHAS III S653N single mutant); test: Plant injury after herbicide spray, Table 3; settings: 3-4 leaf stage, 2 weeks after treatment, line BnCL97
Method: as §1

[8] = system: BnCL131A1 (AHAS III A122T:S653N, double mutant); test: Foliar spray response of whole plants, FIG. 2; settings: 210 g ai/ha + 0.5% v/v Merge, 3-4 leaf stage, three weeks after treatment, line BnCL131A1
Method: (§2) In addition, B. napus plants (3-4 leaf stage) containing the double mutant were analyzed for response to treatment with imazamox compared to wild type plants. Lines BN02 (wild-type) and BnCL131A1 (AHAS III A122T:S653N, double mutant) were treated with either 210 g ai/ha imazamox supplemented with 0.5% v/v Merge by foliar spray or left unsprayed as checks. FIG. 2 provides the results for plants BN02 (top row) and BnCL131A1 (bottom row).

[9] = system: BN02 (wild-type); test: Foliar spray response of whole plants, FIG. 2; settings: 210 g ai/ha + 0.5% v/v Merge, 3-4 leaf stage, three weeks after treatment, line BN02
Method: as §2

[10] = system: BnCL131A1.18 (AHAS III A122T S653N double mutant); test: Herbicide injury rating, Table 4; settings: 3-4 leaf stage, 2 weeks post spray, line BnCL131A1.18
Method: (§3) Herbicide Injury Rating for Brassica napus Plants Treated with Imazamox. Plants for lines BN02 (wild type), two lines of BnCL131A1 (AHAS III A122T S653N double mutant; BnCL131A1.0 and BnCL131A1.18), PM1/PM2 (commercial two gene check: AHAS I S653N & AHAS III W574L) were grown […] Merge. Herbicide injury was evaluated 2 weeks post spray on 12 plants per line. The results are presented as mean injury±one standard error of the mean in Table 4 below. The results cover one planting and spray for all lines and the values for ±two standard error of the mean are also provided.

[11] = system: BN-02 (wild type); test: Herbicide injury rating, Table 4; settings: 3-4 leaf stage, 2 weeks post spray, line BN-02
Method: as §3

[12] = system: PM1/PM2 (commercial two gene check: AHAS I S653N & AHAS III W574L); test: Herbicide injury rating, Table 4; settings: 3-4 leaf stage, 2 weeks post spray, line PM1/PM2
Method: as §3

[13] = system: BnCL131A1.0 (AHAS III A122T S653N double mutant); test: Herbicide injury rating, Table 4; settings: 3-4 leaf stage, 2 weeks post spray, line BnCL131A1.0
Method: as §3

`COCc1cnc(C2=NC(C)(C(C)C)C(=O)N2)c(C(=O)O)c1` (stereo not drawn) [imazamox] was tested, and the “Herbicide injury, mean ± one standard error of the mean, 0 to 9 scale (0 no injury, 9 plant death)” value ([1]; 35 g ai/ha + 0.5% v/v Merge) was 0.76 ± 0.33, the “Herbicide injury, mean ± one standard error of the mean, 0 to 9 scale (0 no injury, 9 plant death)” value ([1]; 70 g ai/ha + 0.5% v/v Merge) was 2.53 ± 0.24 and the “Herbicide injury, mean ± one standard error of the mean, 0 to 9 scale (0 no injury, 9 plant death)” value ([1]; 210 g ai/ha + 0.5% v/v Merge) was 3.22 ± 0.33. The “Herbicide injury, mean ± one standard error of the mean, 0 to 9 scale (0 no injury, 9 plant death)” value ([2]; 35 g ai/ha + 0.5% v/v Merge) was 1.81 ± 0.25, the “Herbicide injury, mean ± one standard error of the mean, 0 to 9 scale (0 no injury, 9 plant death)” value ([2]; 70 g ai/ha + 0.5% v/v Merge) was 4.14 ± 0.23 and the “Herbicide injury, mean ± one standard error of the mean, 0 to 9 scale (0 no injury, 9 plant death)” value ([2]; 210 g ai/ha + 0.5% v/v Merge) was 6.17 ± 0.22. For the same compound, the “Herbicide injury, mean ± one standard error of the mean, 0 to 9 scale (0 no injury, 9 plant death)” value ([3]; 35 g ai/ha + 0.5% v/v Merge) was 7.22 ± 0.18, the “Herbicide injury, mean ± one standard error of the mean, 0 to 9 scale (0 no injury, 9 plant death)” value ([3]; 70 g ai/ha + 0.5% v/v Merge) was 8.61 ± 0.12 and the “Herbicide injury, mean ± one standard error of the mean, 0 to 9 scale (0 no injury, 9 plant death)” value ([3]; 210 g ai/ha + 0.5% v/v Merge) was 9.00 ± 0.00. The “Herbicide injury, mean ± one standard error of the mean, 0 to 9 scale (0 no injury, 9 plant death)” value ([4]; 35 g ai/ha + 0.5% v/v Merge) was 9.00 ± 0.00, the “Herbicide injury, mean ± one standard error of the mean, 0 to 9 scale (0 no injury, 9 plant death)” value ([4]; 70 g ai/ha + 0.5% v/v Merge) was 9.00 ± 0.00 and the “Herbicide injury, mean ± one standard error of the mean, 0 to 9 scale (0 no injury, 9 plant death)” value ([4]; 210 g ai/ha + 0.5% v/v Merge) was 9.00 ± 0.00. The “Herbicide injury, mean ± one standard error of the mean, 0 to 9 scale (0 no injury, 9 plant death)” value ([5]; 35 g ai/ha + 0.5% v/v Merge) was 1.21 ± 0.33, the “Herbicide injury, mean ± one standard error of the mean, 0 to 9 scale (0 no injury, 9 plant death)” value ([5]; 70 g ai/ha + 0.5% v/v Merge) was 4.13 ± 0.36 and the “Herbicide injury, mean ± one standard error of the mean, 0 to 9 scale (0 no injury, 9 plant death)” value ([5]; 210 g ai/ha + 0.5% v/v Merge) was 4.93 ± 0.53. The “Herbicide injury, mean ± one standard error of the mean, 0 to 9 scale (0 no injury, 9 plant death)” value ([6]; 35 g ai/ha + 0.5% v/v Merge) was 4.19 ± 0.39, the “Herbicide injury, mean ± one standard error of the mean, 0 to 9 scale (0 no injury, 9 plant death)” value ([6]; 70 g ai/ha + 0.5% v/v Merge) was 5.43 ± 0.24 and the “Herbicide injury, mean ± one standard error of the mean, 0 to 9 scale (0 no injury, 9 plant death)” value ([6]; 210 g ai/ha + 0.5% v/v Merge) was 6.65 ± 0.30. The “Herbicide injury, mean ± one standard error of the mean, 0 to 9 scale (0 no injury, 9 plant death)” value ([7]; 35 g ai/ha + 0.5% v/v Merge) was 4.08 ± 0.15, the “Herbicide injury, mean ± one standard error of the mean, 0 to 9 scale (0 no injury, 9 plant death)” value ([7]; 70 g ai/ha + 0.5% v/v Merge) was 8.58 ± 0.15 and the “Herbicide injury, mean ± one standard error of the mean, 0 to 9 scale (0 no injury, 9 plant death)” value ([7]; 210 g ai/ha + 0.5% v/v Merge) was 8.00 ± 0.23. The “response to treatment with imazamox (tolerance)” value [8] was “almost completely tolerant”, the “response to treatment with imazamox (tolerance)” value [9] was “nearly non-tolerant” and the “Herbicide injury rating, mean injury ± standard error of the mean” value ([10]; 35 g ai/ha + 0.5% v/v Merge) was 0.64 ± 0.20. For the same compound, the “Herbicide injury rating, mean injury ± standard error of the mean” value ([10]; 70 g ai/ha + 0.5% v/v Merge) was 0.91 ± 0.21, the “Herbicide injury rating, mean injury ± standard error of the mean” value ([10]; 210 g ai/ha + 0.5% v/v Merge) was 1.89 ± 0.20 and the “Herbicide injury rating, mean injury ± standard error of the mean” value ([10]; 420 g ai/ha) was 2.27 ± 0.14. For the same compound, the “Herbicide injury rating, mean injury ± standard error of the mean” value ([11]; 35 g ai/ha + 0.5% v/v Merge) was 8.92 ± 0.08, the “Herbicide injury rating, mean injury ± standard error of the mean” value ([11]; 70 g ai/ha + 0.5% v/v Merge) was 9.00 ± 0.00 and the “Herbicide injury rating, mean injury ± standard error of the mean” value ([11]; 210 g ai/ha + 0.5% v/v Merge) was 9.00 ± 0.00. The “Herbicide injury rating, mean injury ± standard error of the mean” value ([11]; 420 g ai/ha) was 9.00 ± 0.00, the “Herbicide injury rating, mean injury ± standard error of the mean” value ([12]; 35 g ai/ha + 0.5% v/v Merge) was 0.50 ± 0.19 and the “Herbicide injury rating, mean injury ± standard error of the mean” value ([12]; 70 g ai/ha + 0.5% v/v Merge) was 1.83 ± 0.21. For the same compound, the “Herbicide injury rating, mean injury ± standard error of the mean” value ([12]; 210 g ai/ha + 0.5% v/v Merge) was 2.00 ± 0.23, the “Herbicide injury rating, mean injury ± standard error of the mean” value ([12]; 420 g ai/ha) was 3.83 ± 0.21 and the “Herbicide injury rating, mean injury ± standard error of the mean” value ([13]; 35 g ai/ha + 0.5% v/v Merge) was 0.90 ± 0.28. For the same compound, the “Herbicide injury rating, mean injury ± standard error of the mean” value ([13]; 70 g ai/ha + 0.5% v/v Merge) was 1.20 ± 0.29, the “Herbicide injury rating, mean injury ± standard error of the mean” value ([13]; 210 g ai/ha + 0.5% v/v Merge) was 1.45 ± 0.28 and the “Herbicide injury rating, mean injury ± standard error of the mean” value ([13]; 420 g ai/ha) was 3.20 ± 0.20.
